Measured values published in US20240199555A1, “APPLICATIONS OF BIASED LIGANDS OF THE SEROTONIN 5-HT7 RECEPTOR FOR THE TREATMENT OF PAIN, MULTIPLE SCLEROSIS AND THE CONTROL OF THERMOREGULATION” (Centre National de la Recherche Scientifique, priority 2021, published 2024).
Read-outs that look alike come from different tables or passages of the source.

Columns and labels:
[1] = molecular target: human 5-HT2A receptor (Homo sapiens (Human), UniProt P28223); assay: Radioligand binding competition, 5-HT2A; settings: selectivity panel
Sequence of human 5-HT2A receptor (P28223 whole entry): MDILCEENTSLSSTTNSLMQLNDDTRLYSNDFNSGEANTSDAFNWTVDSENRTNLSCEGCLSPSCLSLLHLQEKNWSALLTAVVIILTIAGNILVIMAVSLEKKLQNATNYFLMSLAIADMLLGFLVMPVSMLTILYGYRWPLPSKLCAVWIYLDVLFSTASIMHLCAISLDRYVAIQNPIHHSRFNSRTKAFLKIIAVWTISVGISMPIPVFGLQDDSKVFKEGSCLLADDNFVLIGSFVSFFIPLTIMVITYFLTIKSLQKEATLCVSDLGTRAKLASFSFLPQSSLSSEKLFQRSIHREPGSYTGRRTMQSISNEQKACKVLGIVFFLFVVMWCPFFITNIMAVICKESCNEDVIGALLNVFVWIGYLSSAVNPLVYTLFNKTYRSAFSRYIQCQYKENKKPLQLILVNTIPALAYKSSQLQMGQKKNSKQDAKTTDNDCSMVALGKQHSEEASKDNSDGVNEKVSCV
Protocol: FIG. 14: Testing of 8 molecules for radioligand binding competition activity on recombinant human 5-HT1A, 5-HT2A, 5-HT2Cedited, 5-HT6, 5-HT7 and D2(long) receptors using filtration binding assays.
Radioligand Binding experiments were conducted with Epics Therapeutics membrane preparations. Receptor accession numbers, cellular background and reference compounds are shown in this table.
The new compounds have been tested by radioligand binding competition activity at the human 5-HT1A (FAST-0500B), 5-HT2A (FAST-0505B), 5-HT2Cedited (FAST-0507B), 5-HT6 (FAST-0509B), 5-HT7a (FAST-05111B) and D2(long) (FAST-0101B) receptors at seven (7) concentrations, in duplicate. […] Reference values thus obtained for the test were compared to historical values obtained from the same receptor and used to validate the experimental session. For replicate determinations, the maximum variability tolerated in the test was of +/−20% around the average of the replicates.
Dose-response data from test compounds were analyzed with XLfit (IDBS) software using nonlinear regression applied to a sigmoidal dose-response model and the following equation: • XL Fit fit Model 203: 4 Parameter Logistic Model • A: Bottom • B: TOP • C: LogEC50 • D: Hill

[2] = molecular target: h5-HT7R (Homo sapiens (Human), UniProt P34969); assay: cAMP accumulation (LANCE cAMP detection kit) in HEK-293 cells stably expressing h5-HT7R; type: cell-based
Sequence of h5-HT7R (P34969 1-432): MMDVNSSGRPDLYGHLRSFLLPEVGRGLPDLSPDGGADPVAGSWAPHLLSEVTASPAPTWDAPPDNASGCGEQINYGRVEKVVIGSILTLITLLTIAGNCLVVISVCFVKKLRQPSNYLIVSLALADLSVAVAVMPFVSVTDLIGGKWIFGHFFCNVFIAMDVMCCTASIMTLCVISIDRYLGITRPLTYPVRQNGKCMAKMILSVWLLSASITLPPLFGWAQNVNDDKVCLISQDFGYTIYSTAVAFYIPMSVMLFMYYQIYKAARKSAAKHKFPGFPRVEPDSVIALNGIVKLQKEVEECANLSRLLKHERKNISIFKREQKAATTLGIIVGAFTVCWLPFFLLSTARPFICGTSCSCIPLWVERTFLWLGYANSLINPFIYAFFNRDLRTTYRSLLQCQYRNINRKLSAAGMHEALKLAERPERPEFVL
Protocol: (B) HEK-293 cells stably expressing h5-HT7R were stimulated with 10 nM of 5-CT and increasing concentrations of products for one hour. After cell lysis, cAMP production was quantified by a LANCE cAMP detection kit (Perkin Elmer). […] Data points represent the means±SEM from three independent experiments performed in triplicate. The EC50 and IC50 for each drug was determined using GraphPad Prism software.
cAMP accumulation was measured with a LANCE™ cAMP detection kit (Perkin-Elmer Life Sciences, Boston, MA, USA). 12 h before experiment cells were starved. Forty-eight h after transfection, cells were harvested in Hank's balanced salt solution (HBSS) containing 5 mM HEPES, 1 mM isobutylmethylxanthine (IBMX) and 0.1% BSA, PH 7.4. After centrifugation (1000×g, 5 min), cells were resuspended in the same buffer (2×10^6 per ml). The ALEXA™ fluor 647 anti-cAMP antibody solution (1 μl) was added to the cell suspension (100 μl) and 5 μl aliquots of the mixture were dispensed in white 384-well microtiter plates (Optiplate, Perkin Elmer). The cells were then stimulated with different drugs. After 1 h incubation at room temperature in the dark, lysis buffer (0.35% Triton X-100, 10 mM CaCl2, 50 mM HEPES) containing LANCE EU-W8044 labeled streptavidin and biotinylated-cAMP was added to the cells (10 μL per well). After 2 h incubation at room temperature in the dark, the plates were read on a VictorV™ microplate reader (Perkin-Elmer Life Sciences). Concentration/response curves were analyzed using Prism 4 software.
HEK-293 fibroblast stably expressing 5-HT7 receptor were used to compare the effect of different 5-HT7R ligands on the classical Gαs-mediated activation of AC pathway. It was decided to evaluate the lead compounds from two series of ligands, Serodolin and MOA-51 (FIG. 1A).

[3] = test system: mice; assay: CFA-induced mechanical hypersensitivity, Von Frey filament test; type: in vivo; settings: 5 mg/kg, s.c.
Protocol: Mechanical hypersensitivity was evaluated after CFA intraplantar injection by using the Von Frey test. […] Mechanical hypersensitivity was performed 24 hrs later (pre-treatment) CFA intraplantar injection into the left hind paw (ipsilateral paw). […] The ligand effects (E55888 or Serodolin) were evaluated 30 min and 24 hrs after in the ipsilateral paw. Data are means±SEM of values obtained in 2 independent experiments (n=8 to 10 per group). ****p<0.0001 ***p<0.001 **p<0.01 *p<0.05. Statistical analysis was done using Kruskal Wallis test.
Von Frey filament test. Before inducing peripheral inflammation, each animal was tested on the left hind paw with Von Frey Filament to determine its basal sensibility level. Then, peripheral inflammation was induced by intraplantar injection of Complete Freund's Adjuvant (CFA-10 μL) (F5881, Sigma) in the left hind paw (ipsilateral paw) and mechanical allodynia was measure (pre-treatment). Mice were divided into two groups, one with E55888 (5 mg/kg) and the other with Serodolin (5 mg/kg) subcutaneous injections in the ipsilateral paw. Both in absence (−) or in presence (+) of the 5-HT7R antagonist SB269960 (5 mg/kg), intraperitoneally, 20 min before the agonist injections (8-10 mice per group).
The inventors wanted to evaluate the effect of Serodolin on mechanical hypersensitivity in comparison with E-55888 after CFA injection.

O=c1[nH]c2ccccc2n1CN1CCN(c2ccc(F)cc2)CC1 [Serodolin]
IC50 ([1]; read-out: RLB 5-HT2A IC50): 16.9 nM
Ki ([1]; read-out: RLB 5-HT2A Ki): 2.8 nM
IC50 ([2]; 10 nM of 5-CT, one hour, read-out: IC50, decrease of the 5-CT induced cAMP accumulation (antagonist)): 5 ± 2 nM
inhibition of cAMP production when tested alone (inverse agonist effect) ([2]; tested alone): around 75%
IC50 ([2]; tested alone, read-out: IC50, inverse agonist effect on cAMP response): 14 nM
CFA-induced mechanical hypersensitivity, 30 minutes after administration ([3]; 30 minutes): Significantly decreased paw withdrawals thresholds (anti-allodynia)
anti-allodynic effect 24 later ([3]; 24 hrs): still significant
